Measurements from patent publication US20130053430A1, “MODULATION OF CETP EXPRESSION” (Isis Pharmaceuticals, Inc., priority 2010, published 2013).
e = 2'-O-(2-methoxyethyl) (MOE); d = 2'-deoxy (DNA)

Tests used:
[1] = Liver function, plasma ALT and AST (Example 8); assay type: in vivo; conditions: huCETP transgenic mice, Western diet; 25 mg/kg s.c. twice per week for 2 weeks
Excerpt: (§1) The mice were divided into two groups of 4-6 mice each.

[2] = tested on: human CETP mRNA; experiment: Dose-dependent antisense inhibition of human CETP in SW872 liposarcoma cells (Example 2); assay type: cell-based; conditions: Lipofectin, ~16 hours (Example 2)
Experimental: (§2) Cells were plated at a density of 50,000 cells per well in a 24-well plate and transfected using Lipofectin reagent with 50 nM, 150 nM, and 300 nM concentrations of each antisense oligonucleotide. After approximately 16 hours, RNA was isolated from the cells and CETP mRNA levels were measured by quantitative real-time PCR. CETP mRNA levels were normalized to total RNA content, as measured by the house-keeping gene, GAPDH mRNA levels. Results are presented in Table 4 as percent inhibition of CETP, relative to untreated control cells.

[3] = tested on: CETP protein; experiment: Plasma CETP protein by ELISA (Example 8); assay type: in vivo, human; conditions: huCETP transgenic mice, Western diet; 25 mg/kg s.c. twice per week for 2 weeks; relative to PBS control
Experimental: as §1
Plasma CETP protein levels were measured by ELISA (Alpco). […] The results are expressed as percent inhibition of CETP protein, relative to the PBS control.

[4] = tested on: CETP mRNA; experiment: Liver CETP mRNA in huCETP transgenic mice on Western diet (Example 8); assay type: in vivo, human; conditions: 25 mg/kg s.c. twice per week for 2 weeks, relative to PBS control
Experimental: Male transgenic mice were maintained on a 12-hour light/dark cycle and were fed ad libitum the Western diet (TD88137; 42% cal from fat, 0.2% cholesterol; Harlan Laboratories, Indianapolis, Ind.). Animals were acclimated for at least 7 days in the research facility before initiation of the experiment and were maintained on this diet throughout the study period. Antisense oligonucleotides (ASOs) were prepared in phosphate buffered saline (PBS) and sterilized by filtering through a 0.2 micron filter. Oligonucleotides were dissolved in 0.9% PBS for injection.
as §1
Twenty four hours after the final dose, the animals were sacrificed and liver tissue was isolated.
Liver RNA was isolated for real-time PCR analysis of CETP. The primer probe set hCETP was used to measure CETP levels. […] The RNA expression levels were normalized to murine Cyclophilin. The results are expressed as percent inhibition of CETP mRNA, relative to the PBS control.

[5] = Plasma cholesterol and triglyceride levels (Example 8); assay type: in vivo; conditions: huCETP transgenic mice, Western diet
Experimental: as §1
Plasma cholesterol were extracted at week 6 by the method of Bligh and Dyer (Bligh, E. G. and Dyer, W. J. Can. J. Biochem. Physiol. 37: 911-917, 1959) and measured with an Olympus clinical analyzer (Hitachi Olympus AU400e, Melville, N.Y.). HDL and LDL cholesterol were individually measured by HPLC. Triglyceride levels were measured with the use of a commercially available triglyceride kit (DCL Triglyceride Reagent; Diagnostic Chemicals Ltd., Charlottetown, Canada). The results are presented in Table 41 and are expressed in mg/dL.

[6] = mouse, in vivo, sc, 25 mg/kg
Excerpt: The saline-injected group served as the control group to which oligonucleotide-treated groups were compared. […] This group served a negative control for the effects of the antisense oligonucleotides against CETP. The groups are further described in Table 27, and are designated letters A-F, by which they will be referred from henceforth.

[7] = tested on: human CETP mRNA; experiment: Dose-dependent antisense inhibition of human CETP in SW872 liposarcoma cells (Example 3); assay type: cell-based; conditions: Lipofectin, ~16 hours (Example 3)
Experimental: as §2, with “ISIS 17291 ([…], 6-8-6 MOE (SEQ ID NO: 115)), ISIS 17302 ([…], 6-8-6 MOE (SEQ ID NO: 116)), and ISIS 17305 ([…], 6-8-6 MOE (SEQ ID NO: 117), first disclosed in U.S. Ser. No. 11/031,827 (incorporated by reference herein), were also tested under the same conditions. Cells” for “Cells”, “Table 5” for “Table 4”

[8] = 25 mg/kg s.c. twice per week for 2 weeks

Question: With “ISIS 349517: 5-10-5 MOE gapmer CAGCACTTTAATGCCAGTGG (sugars from the 5' end e5 d10 e5, backbone and methylation of C not given here)” as the substance, how does the “Transaminase levels, ALT” value [1] read?
Answer: 26 IU/L

Question: What about the “Transaminase levels, AST” value [1] of the same substance?
Answer: 38 IU/L

Question: What about the “percent inhibition of CETP” value ([2]; 50 nM) of the same substance?
Answer: 100%

Question: What about the “percent inhibition of CETP” value ([2]; 150 nM) of the same substance?
Answer: 98%

Question: What about the “percent inhibition of CETP” value ([2]; 300 nM) of the same substance?
Answer: 98%

Question: And the “Percent inhibition of plasma CETP protein levels” value [3]?
Answer: 96%

Question: And the “Percent inhibition of liver CETP mRNA expression” value [4]?
Answer: 84%

Question: What about the “HDL % at week 0” value [5, 8] of the same substance?
Answer: 39%

Question: What about the HDL cholesterol [5, 8] of the same substance?
Answer: 155 mg/dL

Question: And the “LDL Cholesterol” value [5, 8]?
Answer: 48 mg/dL

Question: What about the Total cholesterol [5, 8] of the same substance?
Answer: 212 mg/dL

Question: What about the Triglycerides [5, 8] of the same substance?
Answer: 58 mg/dL

Question: And the “increase in HDL levels compared to the PBS control” value ([5]; 25 mg/kg s.c. twice per week, on week 3)?
Answer: 30%

Question: And the “Organ weights, Kidney” value [6]?
Answer: 0.39

Question: What about the “Organ weights, Liver” value [6] of the same substance?
Answer: 1.51

Question: What about the “Organ weights, Spleen” value [6] of the same substance?
Answer: 0.09

Question: What about the “percent inhibition of CETP” value ([7]; 50 nM) of the same substance?
Answer: 76%

Question: And the “percent inhibition of CETP” value ([7]; 150 nM)?
Answer: 91%

Question: And the “percent inhibition of CETP” value ([7]; 300 nM)?
Answer: 93%
